# Data: ChEMBL document CHEMBL5727030, “Factor IXa inhibitors” (2018)
# Target: Coagulation factor IX (Homo sapiens, UniProt P00740)
# Experiment: Test substances were dissolved in buffer A (50 mM α,α,α-tris(hydroxymethyl) methylamine (Tris), 100 mM NaCl, 5 mM CaCl2, 15% (v/v) ethylene glycol, pH 8.0) were mixed with factor IXa (0.1 μg/ml final concentration). The enzyme reaction was started by addition of SPECTROFLUOR FIXa (100 μM final concentration).
# Sequence of Coagulation factor IX (P00740 47-191 limits assumed): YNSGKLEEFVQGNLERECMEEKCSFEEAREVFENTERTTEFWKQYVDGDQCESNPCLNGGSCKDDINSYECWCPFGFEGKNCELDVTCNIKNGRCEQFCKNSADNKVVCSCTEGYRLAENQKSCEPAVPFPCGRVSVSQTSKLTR
# Sequence of Coagulation factor IX (P00740 227-461 limits assumed): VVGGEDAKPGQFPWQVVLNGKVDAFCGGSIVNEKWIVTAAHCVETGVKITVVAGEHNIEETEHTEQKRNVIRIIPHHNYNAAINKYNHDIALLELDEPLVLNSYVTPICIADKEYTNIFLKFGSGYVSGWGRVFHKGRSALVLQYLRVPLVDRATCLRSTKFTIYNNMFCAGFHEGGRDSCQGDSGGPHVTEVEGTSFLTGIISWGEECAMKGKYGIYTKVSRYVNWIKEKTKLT
smiles,measurement,value
Nc1noc2c(N3CCC(NC(=O)c4c(Cl)cc(-n5cnnc5)cc4Cl)(c4ccccc4)C3)cccc12 (stereo unspecified),IC50,< 100 nM
